Source: ChEMBL document CHEMBL5154900, “Design and Synthesis of Dual EZH2/BRD4 Inhibitors to Target Solid Tumors” (J Med Chem, 2022)
Activity calls are given as the source filed them. No cut-off for these calls is given here.

Key:
HCT-116 [1] = test: Induction of apoptosis in human HCT116 cells assessed as early apoptotic cells at 20 uM measured after 72 hrs by flow cytometry (reference value: 2.8 %); type: functional
[2] = molecular target: T1, Bromodomain-containing protein 4 (Homo sapiens, UniProt O60885); test: Inhibition of BRD4 in human ASPC1 cells assessed as decrease in c-Myc level at 1 uM incubated for 72 hrs by Western blot analysis; type: cell-based
HCT-116 [3] = test: Antiproliferative activity against human HCT-116 cells assessed as inhibition of cell proliferation at 1 uM incubated for 4 days by cell counter method; type: functional, cell-based; conditions: time 4.0 day
HCT-116 [4] = test: Antitumor activity against human HCT-116 cells assessed as inhibition of colony formation measured after 12 to 20 days by crystal violet staining based analysis; type: functional, cell-based; conditions: dose <= 0.4 µM, time 12-20 day, DDE = dose-dependent effect
A549 [5] = test: Antitumor activity against human A549 cells assessed as inhibition of colony formation measured after 12 to 20 days by crystal violet staining based analysis; type: functional, cell-based; conditions: dose <= 0.4 µM, time 12-20 day, DDE = dose-dependent effect
[6] = molecular target: T2, Histone-lysine N-methyltransferase EZH2 (Homo sapiens, UniProt Q15910); test: Inhibition of EZH2 in human HCT-116 cells assessed as decrease in H3K27me3 level at 0.05 uM incubated for 72 hrs by Western blot analysis; type: cell-based
Target sequence in this assay (Q15910 whole entry, looked up): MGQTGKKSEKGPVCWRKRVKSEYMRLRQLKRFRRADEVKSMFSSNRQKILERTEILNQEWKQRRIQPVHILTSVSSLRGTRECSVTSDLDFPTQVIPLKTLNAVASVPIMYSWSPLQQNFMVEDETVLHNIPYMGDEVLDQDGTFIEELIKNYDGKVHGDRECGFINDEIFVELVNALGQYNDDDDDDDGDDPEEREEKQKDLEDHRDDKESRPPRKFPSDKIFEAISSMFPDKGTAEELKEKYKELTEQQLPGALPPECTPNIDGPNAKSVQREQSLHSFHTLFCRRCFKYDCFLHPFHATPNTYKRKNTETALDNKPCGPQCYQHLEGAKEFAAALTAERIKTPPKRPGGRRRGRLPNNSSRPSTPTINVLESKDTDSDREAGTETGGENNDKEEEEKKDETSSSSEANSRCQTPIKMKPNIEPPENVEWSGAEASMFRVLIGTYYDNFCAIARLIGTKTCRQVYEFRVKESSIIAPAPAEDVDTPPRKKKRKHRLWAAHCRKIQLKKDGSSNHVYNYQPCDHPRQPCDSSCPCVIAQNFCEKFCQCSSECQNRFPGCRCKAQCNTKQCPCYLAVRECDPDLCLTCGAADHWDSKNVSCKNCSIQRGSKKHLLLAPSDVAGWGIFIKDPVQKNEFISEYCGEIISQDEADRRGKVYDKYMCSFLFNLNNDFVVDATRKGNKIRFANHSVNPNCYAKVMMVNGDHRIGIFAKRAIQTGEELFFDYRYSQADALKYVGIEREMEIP

HCT-116 [7] = test: Induction of apoptosis in human HCT116 cells assessed as early apoptotic cells at 10 uM measured after 72 hrs by flow cytometry (reference value: 2.8 %); type: functional
ASPC1 [8] = test: Induction of apoptosis in human ASPC-1 cells assessed as downregulation of Bcl-xl protein at 1 uM inubated for 72 hrs by Western blot analysis; type: functional, cell-based
A549 [9] = test: Induction of apoptosis in human A549 cells assessed as downregulation of Bcl-2 protein at 1 uM inubated for 72 hrs by Western blot analysis; type: functional, cell-based
[10] = Half life in 12 hr fasted BALB/c mouse at 80 mg/kg, ip measured for 0.083 to 24 hrs by UPLC-MS/MS analysis; type: ADME, organism-based; conditions: in vivo, time 0.083-24 hrs
[11] = Tmax in 12 hr fasted BALB/c mouse at 80 mg/kg, ip measured for 0.083 to 24 hrs by UPLC-MS/MS analysis; type: ADME, organism-based; conditions: in vivo, time 0.083-24 hrs
[12] = AUC in 12 hr fasted BALB/c mouse at 80 mg/kg, ip measured for 0.083 to 24 hrs by UPLC-MS/MS analysis; type: ADME, organism-based; set-up: time lower 0.083 hrs, dose 80 mg/kg, time upper 24 hrs, route ip; conditions: in vivo
[13] = Clearance in 12 hr fasted BALB/c mouse at 80 mg/kg, ip measured for 0.083 to 24 hrs by UPLC-MS/MS analysis; type: ADME, organism-based; conditions: in vivo, time 0.083-24 hrs
[14] = Half life in 12 hr fasted BALB/c mouse at 80 mg/kg, po measured for 0.083 to 24 hrs by UPLC-MS/MS analysis; type: ADME, organism-based; conditions: in vivo, time 0.083-24 hrs
ASPC1 [15] = test: Antiproliferative activity against human ASPC1 cells assessed as cell growth inhibition incubated for 6 days by MTS assay; type: functional, cell-based; conditions: ASPC1, 144 h, read-out: IC50
[16] = molecular target: T2, Histone-lysine N-methyltransferase EZH2
Target sequence in this assay (Q15910 whole entry): as the sequence (Q15910 whole entry, looked up) above

[17] = molecular target: T1, Bromodomain-containing protein 4; test: Displacement of fluorescein-labeled JQ1 from His6/TEV cleavage site fused human BRD4 (residues N44 to E168) expressed in Escherichia coli BL21 (DE3) incubated for 60 min by Fluorescence polarization assay
ASPC1 [18] = test: Effect on TNFRSF21 mRNA levels in human ASPC1 cells at 5 uM incubated for 48 hrs by RT-qPCR analysis; type: functional, cell-based
HCT-116 [19] = test: Effect on TNFRSF21 mRNA levels in human HCT-116 cells at 5 uM incubated for 48 hrs by RT-qPCR analysis; type: functional, cell-based
A549 [20] = test: Effect on TNFRSF21 mRNA levels in human A549 cells at 5 uM incubated for 48 hrs by RT-qPCR analysis; type: functional, cell-based
A549 [21] = test: Induction of cell cycle arrest in 24 hr starved human A549 cells assessed as accumulation at G0/G1 phase at 1 uM measured after 48 hrs by PI staining based flow cytometric analysis; type: functional
ASPC1 [22] = test: Antitumor activity against human ASPC1 cells xenografted in BALB/c mouse assessed as tumor growth inhibition at 80 mg/kg, ip administered 3 times weekly for 28 days and measured every 3 days relative to control; type: functional; set-up: scale not given: the % may be the effect or the level left; conditions: time 28 day
A549 [23] = test: Antitumor activity against human A549 cells xenografted in BALB/c mouse assessed as reduction in tumor weight at 60 mg/kg, ip administered 6 times weekly for 38 days relative to control; type: functional; set-up: scale not given: the % may be the effect or the level left; conditions: time 38 day

CCN(c1cc(-c2ccc(OCCCCCNC(=O)C[C@@H]3N=C(c4ccc(Cl)cc4)c4c(sc(C)c4C)-n4c(C)nnc43)cc2)cc(C(=O)NCc2c(C)cc(C)[nH]c2=O)c1C)C1CCOCC1
Activity (HCT-116 [1]): 72.9% | inhibition [2]: Active | Activity (HCT-116 [3]): Active | Activity (HCT-116 [4]): Dde | Activity (A549 [5]): Dde | inhibition [6]: Active | Activity (HCT-116 [7]): 63.4% | Activity (ASPC1 [8]): Active | Activity (A549 [9]): Active | half-life [10]: 229 min | Tmax [11]: 1 h | AUC [12]: 273 µg·h/mL | CL/F [13]: 4.88 mL/min/kg | half-life [14]: 250 min | IC50 (ASPC1 [15]): 690 nM | IC50 [16]: 490 nM | IC50 [17]: 34 nM | Activity (ASPC1 [18]): Active | Activity (HCT-116 [19]): Active | Activity (A549 [20]): Active | Activity (A549 [21]): Active | Activity (ASPC1 [22]): 38.6% | Activity (A549 [23]): 57.8%
